Series [1] is described as follows: Fixed speed rotorod, gross motor function (rat). The conditions noted are these: male, Sprague-Dawley, in vivo, po. Here is the method: On the test day following a defined drug pretreatment period, rats received a maximal electroshock (150 mA, 0.2 s duration, 60 Hz) via corneal electrodes. Protection was defined as absence of a full tonic seizure within 10 s of stimulus delivery. Twenty minutes before the MES procedure, the animals were tested on a fixed speed rotorod (best score from 3 trials at 8 r.p.m, trial duration=60 s) to give an early assessment of drug effect on gross motor function.
On the technique in general: In the rotarod test animals must keep their balance on a rotating rod.

Series [2] concerns Frings audiogenic seizure-susceptible mice. The experiment in a line: Frings audiogenic seizure (AGS)-susceptible mouse model. In kind it is in vivo. The source says: Frings audiogenic seizure (AGS)-susceptible mice model examines the ability of an investigational drug to alter the onset and/or severity of seizures in a genetic mouse model of seizure susceptibility. Mice are genetically susceptible to sound-induced reflex seizures. Their seizure phenotype is characterized by wild running, loss of righting reflex, tonic flexion, and tonic extension in response to high-intensity sound stimulation. […] For example, the prototypical anticonvulsants phenytoin and ethosuximide display widely divergent clinical spectrums in humans, but are both active against sound-induced seizures in mice. Yet, the preclinical utility of this animal model rests in the useful information that can be obtained within a genetically susceptible model of seizures. Further, efficacy in this model provides proof of concept of brain bioavailability following systemic administration. The Frings AGS-susceptible mouse has a well-validated epilepsy phenotype that makes it particularly useful as a screening model. Beginning at about 21 days of age, Frings AGS-susceptible mice display prominent seizure activity in response to a high-intensity sound stimulus. They then remain susceptible to sound throughout their life. This is in stark contrast to the DBA2J AGS-susceptible mouse, which is the other common model of sound-induced seizures, as DBA2J mice are only susceptible to sound-induced seizures during a narrow developmental window (post-natal days 18-30). Thus, the Frings AGS-susceptible mouse seizures respond to a wide range of CNS-active drugs and display sound-induced seizures throughout their lifetime. In this regard, Frings AGS-susceptible mice are a highly useful screening model for the identification and characterization of compounds potentially effective against inherited epilepsy.
Male and female Frings audiogenic seizure-susceptible mice (18-25 g) are maintained in an in-house colony at the University of Utah. For each screening test, groups of 8 mice each are treated i.p. with varying doses of the investigational compound. At the time of peak effect as determined in the MES test (Test 4 in CF1 mice), individual mice are placed in a round plexiglass jar (diameter, 15 cm, height, 18 cm) and exposed to a sound stimulus of 110 decibels (11 KHz) delivered for 20 sec. Mice are observed for 25 sec for the presence or absence of hind limb tonic extension. Mice not displaying hind limb tonic extension are considered protected. The severity of a seizure may also be quantitated by assigning a numerical score to the observed response, e.g. no response—0; wild running for <10 sec—1; wild running for >10 sec—2; clonic seizure—3; forelimb extension/hind limb flexion—4; tonic seizure—5.

The subject of series [3] is MTLE mice. The series can be described thus: Model of mesial temporal lobe epilepsy (mTLE), hippocampal paroxysmal discharges. It is filed as in vivo, mouse. As to conditions: for Effect (% baseline): HPD; for Effect (% baseline) / Mean HPD Counts: mice 4 weeks after intra-hippocampal KA. The source says: The MTLE mouse model recapitulates many of the characteristics observed in human patients with temporal lobe epilepsy (TLE). The MTLE mouse is characterized by an initial neurotoxic event, a unilateral intrahippocampal injection of kainic acid (KA) into the dorsal hippocampus, which induces non-convulsive SE lasting several hours. This initial event is followed by a latent phase. Two to three weeks after KA injection, spontaneous recurrent hippocampal paroxysmal discharges (HPD) are only recorded in the epileptic hippocampus and remain stable and stereotyped for the whole life of the animal. These HPDs occur spontaneously about 30-60 times per hour when the animals are in a state of quiet wakefulness, generally last 15-20 sec and are associated with behavioral arrest and/or mild motor automatisms. Adult, male […] mice are stereotaxically injected with kainate (1 nmol in 100 nL) and implanted with 1 bipolar electrode in the dorsal hippocampus, and then allowed to recover for four weeks prior to evaluation in the screening protocol. Using a group size of 4 MTLE mice per dose of investigational compound, the compounds are typically first tested using the 6 Hz 44 mA ED50 value. […] For all acute studies, drug conditions are counter-balanced in MTLE mice over a two week period using a Latin square dosing protocol. Animals are used as their own controls. Digital EEG recordings are performed on freely moving animals for 20 minutes pre-injection (reference period) and 90 minutes post-injection. Data are analyzed for the period of 10 minutes before and 10 minutes after peak time of effect of the investigational compound, as determined from the 6 Hz 44 mA seizure test. The effects of the injected compound are compared to the reference period. Any accompanying effect on animal behavior is noted. Data are presented as the raw number of HPDs during the analyzed 20 min period (10 minutes before and 10 minutes after peak time of effect of compound) for each MTLE mouse, group mean number of HPDs, and effect on suppression as represented by percent of baseline HPD values.

In series [4] the test system is Male, Sprague-Dawley rats. The series can be described thus: Spinal Nerve Injury (SNI) model (neuropathic pain). It is filed as in vivo, rat. The conditions noted are these: 60 mg/kg i.p. The text has this: The SNI model of neuropathic pain was developed in rats using the procedure described by Decostered and Woolf, Pain 2000, 87: 149-158. Under isoflurane anesthesia, the skin on the lateral surface of the thigh was incised and a section was made directly through the biceps femoris muscle exposing the sciatic nerve and its three terminal branches: the sural, common peroneal and tibial nerves. The common peroneal and the tibial nerves were tight-ligated with 6-0 suture and sectioned distal to the ligation, removing 2-4 mm of the distal nerve stump. Extreme care was taken to avoid any contact with or stretching of the intact sural nerve. Following surgery, hemostasis was confirmed and the muscles were sutured in layers using 4-0 suture and the skin was closed with 4-0 suture and metal clips.
Male, Sprague-Dawley rats were used. Testing of compounds was done 21 days post-operatively. After initial basal readings were taken, the test compound or vehicle was administered. The readings were taken again 30, 60 and 180 min after the compound/vehicle administration. Both the control (uninjured) and the SNI paw were tested. The presence of mechanical allodynia was assessed using the Dynamic Plantar Aesthesiometer (Ugo Basile, Italy) which is a modified version of the Von Frey Hair test. […] A single reading was taken per timepoint. […]
Cold allodynia was assessed by using the acetone test. […]

By ED50 is commonly meant the dose at which the effect has come halfway, by size or by number of responders. A lower ED50 goes with greater potency.

Consider `O=C1COc2cc(OCc3ccc(OC(F)F)cc3)ccc2N1` [Compound I(B)], for which, in series [1], the ED50 at 4 hours is more than 500 mg/kg. Besides, in series [2] (Mus musculus, ip, sound-induced seizures), the ED50 is 13 ± 2 mg/kg. Moreover, in series [2] (i.p.), the “effect on AGS” value is on record as “dose-dependently blocks AGS”. In series [3] (after 80 mg/kg), the “Effect (% baseline)” value is on record as 42.0 % baseline and the “Mean HPD Counts” value was 7.25. For the same molecule, in series [3] (after 160 mg/kg), the “Effect (% baseline)” value is 17.9 % baseline and the “Mean HPD Counts” value is given as 4.25. In series [3] (dose of 125 mg/kg), the “effect against spontaneous recurrent hippocampal paroxysmal discharges (HPD)” value was “effective”. The “mechanical allodynia in the denervated paw (Von Frey test)” value in series [4] was “effective at reducing the mechanical allodynia”. Further, the cold allodynia entry in series [4] (neuropathic rats) is “significantly reduced”.
